Measured values taken from PubChem BioAssay (NCI).
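Results reflect a 48-hour exposure of cells in 96-well plates to compound at five concentrations. TGI: concentration producing complete growth inhibition.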

What was measured:
Assay in all cases: growth of human tumour cells (NCI), 48 h
[1] = test system: MDA-MB-231 breast
[2] = test system: HOP-92 NSCLC
[3] = test system: HS 578T breast
[4] = test system: MOLT-4 leukemia
[5] = test system: SR leukemia
[6] = test system: OVCAR-5 ovarian
[7] = test system: A498 renal
[8] = test system: ACHN renal
[9] = test system: SF-295 CNS
[10] = test system: SNB-19 CNS
[11] = test system: UACC-257 melanoma
[12] = test system: UACC-62 melanoma
[13] = test system: OVCAR-8 ovarian
[14] = test system: HT29 colon
[15] = test system: K-562 leukemia
[16] = test system: HL-60(TB) leukemia
[17] = test system: U251 CNS
[18] = test system: MDA-N
[19] = test system: CCRF-CEM leukemia
[20] = test system: RPMI-8226 leukemia
[21] = test system: NCI-H522 lung
[22] = test system: SK-MEL-5 melanoma
[23] = test system: LOX IMVI melanoma
[24] = test system: MDA-MB-435
[25] = test system: HCT-15 colon
[26] = test system: HCC-2998 colon
[27] = test system: SF-539 CNS
[28] = test system: IGROV1 ovarian
[29] = test system: KM12 colon
[30] = test system: SNB-75 CNS
[31] = test system: SK-MEL-2 melanoma
[32] = test system: SK-OV-3 ovarian
[33] = test system: MALME-3M melanoma
[34] = test system: SW-620 colon
[35] = test system: A549 NSCLC
[36] = test system: NCI-H460 lung
[37] = test system: NCI/ADR-RES ovarian
[38] = test system: OVCAR-4 ovarian
[39] = test system: 786-0 renal
[40] = test system: DU-145 prostate
[41] = test system: TK-10 renal
[42] = test system: HCT-116 colon
[43] = test system: M14 melanoma
[44] = test system: UO-31 renal
[45] = test system: NCI-H23 lung
[46] = test system: HOP-62 NSCLC
[47] = test system: EKVX NSCLC
[48] = test system: T-47D breast
[49] = test system: SK-MEL-28 melanoma
[50] = test system: RXF 393 renal
[51] = test system: COLO 205 colon
[52] = test system: SN12C renal
[53] = test system: NCI-H226 lung
[54] = test system: PC-3 prostate
[55] = test system: CAKI-1 renal
[56] = test system: OVCAR-3 ovarian
[57] = test system: MCF7 breast
[58] = test system: SF-268 CNS

`COc1ccc2nc3c([N+](=O)[O-])ccc4c3c(c2c1)NCCN4CCO` gave a TGI [1] of 2.05 µM, a TGI [2] of 1.59 µM and a TGI [3] of 2.79 µM. For the same molecule, the TGI [4] was 0.806 µM, the TGI [5] was 0.455 µM and the TGI [6] was 2.95 µM. The TGI [7] was 2 µM, the TGI [8] was 2.25 µM and the TGI [9] was 1.71 µM. It also gave a TGI [10] of 3.08 µM, a TGI [11] of 1.5 µM and a TGI [12] of 1.07 µM. The TGI [13] was 2.01 µM, the TGI [14] was 2.02 µM and the TGI [15] was 1.08 µM. For the same molecule, the TGI [16] was 1.25 µM, the TGI [17] was 1.85 µM and the TGI [18] was 1.64 µM. The TGI [19] was 2 µM, the TGI [20] was 2.61 µM and the TGI [21] was 1.24 µM. For the same molecule, the TGI [22] was 1.15 µM, the TGI [23] was 0.792 µM and the TGI [24] was 1.79 µM. The TGI [25] was 2.68 µM, the TGI [26] was 1.91 µM and the TGI [27] was 1.56 µM. It also gave a TGI [28] of 3.22 µM, a TGI [29] of 2.35 µM and a TGI [30] of 1.88 µM. For the same molecule, the TGI [31] was 1.87 µM, the TGI [32] was 3.58 µM and the TGI [33] was 1.45 µM. It also gave a TGI [34] of 3.1 µM, a TGI [35] of 2.68 µM and a TGI [36] of 1.18 µM. For the same molecule, the TGI [37] was 4.41 µM, the TGI [38] was 2.39 µM and the TGI [39] was 1.46 µM. The TGI [40] was 5.34 µM, the TGI [41] was 4.51 µM and the TGI [42] was 1.22 µM. It also gave a TGI [43] of 1.78 µM, a TGI [44] of 1.47 µM and a TGI [45] of 2.45 µM. It also gave a TGI [46] of 2.28 µM, a TGI [47] of 2.97 µM and a TGI [48] of 3.68 µM. For the same molecule, the TGI [49] was 2.03 µM, the TGI [50] was 1.78 µM and the TGI [51] was 1.74 µM. It also gave a TGI [52] of 2.34 µM, a TGI [53] of 0.958 µM and a TGI [54] of 1.56 µM. It also gave a TGI [55] of 3.06 µM, a TGI [56] of 2.91 µM and a TGI [57] of 3.19 µM. It also gave a TGI [58] of 6.26 µM.
